Where “and” joins values, the source holds several entries; their conditions need not be identical. Equal values may be shown once. Read-outs that look alike come from different tables or passages of the source.
Tests used:
[1] = molecular target: T1, HsPBGS oligomeric equilibrium (hexamer/octamer) (Homo sapiens, UniProt P13716, C162A/K59N); assay: Initial native PAGE screen of the NTP library; details: 2 mM compound, 40 °C 30 min
T1 sequence (P13716 1-330 K59N/C162A): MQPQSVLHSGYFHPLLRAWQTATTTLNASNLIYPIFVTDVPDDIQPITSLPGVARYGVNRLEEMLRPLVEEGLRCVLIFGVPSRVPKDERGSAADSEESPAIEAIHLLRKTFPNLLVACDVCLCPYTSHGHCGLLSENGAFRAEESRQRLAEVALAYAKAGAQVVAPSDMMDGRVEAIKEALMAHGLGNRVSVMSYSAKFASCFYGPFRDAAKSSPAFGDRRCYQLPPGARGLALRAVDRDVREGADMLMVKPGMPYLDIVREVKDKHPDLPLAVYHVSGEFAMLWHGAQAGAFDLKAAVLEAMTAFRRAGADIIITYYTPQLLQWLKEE

[2] = molecular target: T1, HsPBGS oligomeric equilibrium (hexamer/octamer); details: for Effect on HsPBGS oligomeric distribution, in words: native PAGE
[3] = molecular target: T2, human porphobilinogen synthase (HsPBGS) (Homo sapiens, UniProt P13716, C162A/K59N); assay: biochemical; format: biochemical
T2 sequence (P13716 1-330 K59N/C162A): T1 sequence (P13716 1-330 K59N/C162A)

[4] = system: PBGS from Yersinia enterocolitica; assay: Inhibition of PBGS from Yersinia enterocolitica; format: biochemical; details: data not shown
[5] = molecular target: T3, PBGS from Pisum sativum (green pea) (Pisum sativum, UniProt P30124); assay: Inhibition of PBGS from Pisum sativum; format: biochemical; details: data not shown
T3 sequence (P30124 1-398): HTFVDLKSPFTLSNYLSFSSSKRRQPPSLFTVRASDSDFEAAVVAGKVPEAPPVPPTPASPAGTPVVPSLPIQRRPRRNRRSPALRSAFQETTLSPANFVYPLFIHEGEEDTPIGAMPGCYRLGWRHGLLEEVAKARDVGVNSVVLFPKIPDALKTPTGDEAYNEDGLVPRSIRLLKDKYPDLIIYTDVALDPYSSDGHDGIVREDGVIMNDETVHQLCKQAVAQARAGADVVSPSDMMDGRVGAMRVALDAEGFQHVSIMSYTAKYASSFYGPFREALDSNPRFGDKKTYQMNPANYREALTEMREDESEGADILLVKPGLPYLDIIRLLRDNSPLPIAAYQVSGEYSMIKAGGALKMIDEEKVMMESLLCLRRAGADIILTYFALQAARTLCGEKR

[6] = molecular target: PBGS from Pseudomonas aeruginosa (Pseudomonas aeruginosa, UniProt Q59643); assay: Inhibition of PBGS from Pseudomonas aeruginosa; format: biochemical; details: data not shown
Sequence of PBGS from Pseudomonas aeruginosa (Q59643 whole entry): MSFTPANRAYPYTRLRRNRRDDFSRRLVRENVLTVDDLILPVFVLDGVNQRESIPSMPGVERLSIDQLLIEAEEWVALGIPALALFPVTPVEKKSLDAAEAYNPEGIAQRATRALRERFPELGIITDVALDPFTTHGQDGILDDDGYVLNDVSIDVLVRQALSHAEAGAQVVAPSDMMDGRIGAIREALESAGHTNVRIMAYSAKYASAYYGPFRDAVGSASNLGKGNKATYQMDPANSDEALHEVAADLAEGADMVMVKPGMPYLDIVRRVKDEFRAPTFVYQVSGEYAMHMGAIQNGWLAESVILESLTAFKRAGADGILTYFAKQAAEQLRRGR

HsPBGS = details: Johns Hopkins Clinical Compounds Library, native PAGE; ref [15]; cited from earlier work
[7] = reagents compatible with the HsPBGS activity assay
[8] = percentage of HsPBGS hexamer at 20 mM compound, 42 °C 1 h, no substrate
[9] = fit of the inhibition curve, 0 = hyperbolic decay to zero
[10] = at 3 mM compound, sum of hexameric and dimeric bands (~2:1) (footnote f)
[11] = preincubation 42 °C 1 h, 10 μg/mL HsPBGS, 10 mM substrate, final pH 7.8
[12] = at 2 mM compound (highest concentration, footnote d)

SMILES | Result of initial screen (increase of mole fraction of hexamer) [1] | Mole Fraction Hexamer max (obsd) [2, 8] [%] | IC50 [3] [µM] | FAmin (minimum fractional activity derived from the titration) [3, 9] [%] | IC50 [3, 11] [µM] | other results
O=Cc1ccc(Cl)cc1Cl [2,4-Dichlorobenzaldehyde] | preliminary hits | 86.2 ± 0.7 | 107 ± 4 |  |  | Effect on HsPBGS oligomeric distribution, in words [2]: very effective at stabilizing the HsPBGS hexamer; Inhibition of HsPBGS activity, in words [3]: very poor inhibitors of HsPBGS activity
O=Cc1c(Cl)cccc1Cl [2,6-Dichlorobenzaldehyde] |  |  | 15.2 ± 1.5 |  |  | Mole Fraction Hexamer max (obsd) [2]: 100% and 100 ± 0%; FAmin (minimum fractional activity derived from the titration) [3]: 0%
O=Cc1ccccc1Cl [2-Chlorobenzaldehyde] |  | 91.8 ± 0.5 | 44.6 ± 4.9 | 0 |  | 
O=Cc1ccc(Cl)c(Cl)c1 [3,4-Dichlorobenzaldehyde] |  | 30.4 ± 2.2 | 26.6 ± 2 | 0 |  | 
O=Cc1cccc(Br)c1 [3-Bromobenzaldehyde] | preliminary hits | 89.9 ± 3.4 | 21.5 ± 3.5 | 80.8 ± 1.2 |  | Effect on HsPBGS oligomeric distribution, in words [2]: very effective at stabilizing the HsPBGS hexamer; Inhibition of HsPBGS activity, in words [3]: very poor inhibitors of HsPBGS activity
CC(=O)[O-].CC(=O)[O-].[Cd+2] [Cadmium acetate] |  |  |  | 16.7 ± 4.0 | 3.6 ± 0.7 | Mole Fraction Hexamer max (obsd) [2, 10]: 92.2 ± 0.6 ^f %
[Cl][Cd][Cl] [Cadmium chloride] |  |  |  | 9.2 ± 4.5 | 6.9 ± 1.2 | Mole Fraction Hexamer max (obsd) [2, 10]: 94.9 ± 3.3 ^f %
O=C1[C@H]2CC=CC[C@H]2C(=O)N1SC(Cl)(Cl)Cl [Captan, (3aR,7aS)-2-[(trichloromethyl)sulfanyl]-3a,4,7,7a-tetrahydro-1H-isoindole-1,3(2H)-dione] |  |  | 3 ± 0.3 | 0 |  | Mole Fraction Hexamer max (obsd) [2, 12]: 72.3 ± 0.3% and 72.3 ± 0.2 ^d %
c1cc(OCC2CO2)cc(OCC2CO2)c1 (stereo not drawn) [Diglycidyl resorcinol ether] |  | 87.4 ± 2.7 | 36.3 ± 2.4 | 0 |  | 
COC(=O)c1ccc(C=O)cc1 [Methyl-p-formyl benzoate] |  | 86.5 ± 1.4 |  | 0 | 40.3 ± 0.9 | 
O=C1OC(O)C(C(Cl)Cl)=C1Cl (stereo not drawn) [Mutagen X, 3-chloro-4-(dichloromethyl)-5-hydroxy-2(5H-furanone)] |  |  |  | 0 | 1.4 ± 0.1 | Inhibition potency relative to HsPBGS, in words [4]: comparable potency; Inhibition potency relative to HsPBGS, in words [5]: comparable potency; Effect on HsPBGS oligomeric distribution, in words [2]: increase the ratio of hexamer to octamer; Inhibition potency relative to HsPBGS, in words [6]: comparable potency
CNc1ccc(O)cc1.CNc1ccc(O)cc1.O=S(=O)(O)O [N-methyl-p-aminophenol sulfate] |  | 68.1 ± 0.9 |  | 0 | 13.7 ± 1.3 | 
O=C1CN(/N=C/c2ccc([N+](=O)[O-])o2)C(=O)N1 [Nitrofurantoin, (E)-1-[(5-nitro-2-furyl)methylideneamino]imidazolidine-2,4-dione, reference compound] |  |  | 5.9 ± 0.4 |  |  | Result of previous library screen (HsPBGS): not identified as a hit; FAmin (minimum fractional activity derived from the titration) [3]: 0%
NC(=O)NN=Cc1ccc([N+](=O)[O-])o1 [Nitrofurazone, 5-nitro-2-furaldehyde semicarbazone, reference compound] |  |  |  | 0 |  | Result of previous library screen (HsPBGS): identified as a hexamer-stabilizing HsPBGS inhibitor; Mole Fraction Hexamer max (obsd) [2, 12]: 48.5 ± 0.3 ^d %; Mole Fraction Hexamer max (obsd) ([2]; at 2 mM compound (highest concentration, footnote d), listed as nitrofurazone): 48.5 ± 0.3%
CC1=C2[C@H](/C=C(\C)C(=O)O)CC[C@@H](C)[C@H]2CC1 [Valerenic acid, (2E)-3-[(4S,7R,7aR)-3,7-dimethyl-2,4,5,6,7,7a-hexahydro-1H-inden-4-yl]-2-methylacrylic acid] | preliminary hits | 64.1 ± 0.9 | 8.2 ± 1.7 | 33.2 ± 3.9 |  | 
[Cd+2].[O-2] [cadmium oxide] | preliminary hits |  |  |  |  | Solubility, in words [7]: insolubility in reagents compatible with the HsPBGS activity assay
N.N.[Cl][Pt][Cl] [cis-Dichlorodiamine platinum, (SP-4-2)-diamminedichloridoplatinum, reference compound] |  |  |  | 0 | 17.1 ± 1.5 | Mole Fraction Hexamer max (obsd) ([2]; at 1 mM compound (footnote e), higher concentrations precipitate HsPBGS): 53.0 ± 0.8 ^e %
O=[N+]([O-])c1cccc(CCl)c1 [m-Nitrobenzyl chloride] |  | 79.8 ± 1.3 |  | 0 | 27.1 ± 2.2 | 
C=Cc1ccc(C=C)cc1 [p-divinyl benzene] | preliminary hits |  |  |  |  | Solubility, in words [7]: insolubility in reagents compatible with the HsPBGS activity assay
O=C/C=C/c1ccccc1 [trans-cinnamaldehyde] | preliminary hits |  |  |  |  | 
